Results from patent US20120010229A1, “THERAPEUTIC REGIMENS FOR HEDGEHOG-ASSOCIATED CANCERS” (priority 2010, published 2012).

Tests used:
Assay type in all cases: in vivo
[1] = system: LuCaP35V (Castration Resistant) primary prostate cancer; assay: LuCaP35V castration resistant primary prostate cancer model
Excerpt: The effects of IPI-926 were examined following docetaxel chemotherapy in a model of castration resistant prostate cancer. Prostate cancer is known to be a highly desmoplastic cancer, and one that preferentially metastasizes to bone. Sonic hedgehog ligand is expressed in clinical specimens and primary xenograft models. […] FIG. 7 summarizes the effects of IPI-926 in LuCaP35V (Castration Resistant) primary prostate cancer model. Days of docetaxel and IPI-926 administration are indicated by the arrowheads at the indicated days post-implant. The following samples were tested: Vehicle control (administered orally once a day), 40 mg/kg of IPI-926 (administered orally once a day), docetaxel (administered intravenously Q14D for 28 days), or docetaxel (administered intravenously Q14D for 28 days) followed by 40 mg/kg of IPI-926, as shown in FIG. 7. […] Thus, IPI-926 can be useful as maintenance therapy in prostate cancer.

[2] = system: Ptc^C/C medulloblastoma; assay: Ptc^C/C mouse medulloblastoma model: survival, symptoms, MRI tumor volume
Excerpt: Transgenic mice were maintained in accordance with the NIH Guide for the Care and Use of Experimental Animals with approval from our Institutional Animal Care and Use Committee. Conditional Patched1 null mice (Ptc^C/C) were generated on a mixed background by breeding mice homozygous for the floxed Ptch1 allele (Adolphe et al., (2006) Cancer Res 66: 2081-2088) to Math1-Cre mice, as previously described (Yang et al. (2008) Cancer Cell 14: 135-145). Mice were genotyped by PCR using genomic DNA using the following primers:
Animal experiments were performed in accordance with the NIH Guide for the Care and Use of Experimental Animals with approval from our Institutional Animal Care and Use Committee. 100% penetrance of medulloblastoma in the Ptc^C/C mice was observed, with all mice displaying symptoms of tumor formation by the time of weaning. Ptc^C/C mice (age ranging from 21-36 days) were randomized to receive either IPI-926 (Infinity Pharmaceuticals) or vehicle control (5% (2-Hydroxylpropyl)-B-Cyclodextrin (HPBCD), Sigma Aldrich) administered via intraperitoneal (IP) injection.
Mice were euthanized using CO2 inhalation, brains were removed and tissue snap frozen for RNA studies or fixed in 10% buffered formalin and processed for histopathological examination. Formalin-fixed tissues were paraffin embedded, cut into 4 um sections and stained with Haematoxylin and Eosin using standard methods.
Magnetic resonance imaging (MRI) was performed using a 3 Tesla MRI system (Philips Achieva, Philips Healthcare, Andover, Mass.) and a custom mouse head coil. Serial MR scans were performed using a 35 minute coronal high-resolution T2-weighted sequence (TE=110 ms, TR=2000 ms, bandwidth=212, 2 NEX or signal averages, a matrix of 256×256 pixels in-plane, slice thickness of 320 microns and an interslice gap of 160 microns). Mice were scanned under halothane anesthesia at enrollment, after 3 weeks of treatment, and after 6 weeks of treatment. Ctx:Cy5.5 bioconjugate (Tumor Paint) was given by intravenous tail vein injection one day prior to animal sacrifice. Biophotonic images were obtained using the Xenogen Spectrum imaging system (Caliper Life Sciences) as previously described (Veiseh et al. (2007) Cancer 67: 6882-6888).
DICOM images were exported from the MRI scanner to a web-based repository (BioScribe) and then imported into ITK-SNAP (version 2.0, available on the world wide web at itksnap.org). Images were first windowed to accentuate tumor/brain contrast, easily observed on the T2-weighted scans. […] Effacement of the fourth ventricle was accompanied by lateral and third ventriculomegaly and transependymal CSF flow. Tumor and enlarged cerebellum was seen to herniate into the internal auditory canals (IAC) bilaterally. After each imaging time-point, using the manual tracing tool, tumor tissue (including the IAC components) was painted in three planes excluding frank cerebrospinal fluid or cystic regions. The resultant segmentation file was saved for later use. Three-dimensional surface-rendered reconstructions were then performed and saved in two standard projections for each tumor analyzed, with the aim of delineating a consistent view of the tumor for comparison between pre- and post-treatment scans and between treatment groups. Automated pixel counting multiplied by image pixel dimensions yielded volumetric measures for each segmentation analysis dataset. In addition to quantitative analysis, pre and post-treatment scans were compared for evaluation of secondary changes such as hydrocephalus, prominent extra-axial spaces, cystic change/necrosis in treated tumor and any evidence of hemorrhage.
Studies were designed to detect differences in event rates that approximately corresponded to a doubling of median improvement in survival of (3 weeks) with 90% power based on simulated power experiments. […]

[3] = system: L3.6pl P-lucky liver metastasis; assay: L3.6pl liver metastasis model, Study #1; settings: for H&E staining of liver, tumor cells or metastasis: day 21
Experimental: Cells: L3.6pl is a pancreatic cancer cell line that has been tagged with the bioluminescence marker, luciferase, and is known to form metastasis in the liver (pl—pancreas to liver). Cells were cultured in RPMI+10% FBS and harvested on the day of implant. A single cell suspension was prepared in PBS at a concentration of 10 million cells per 1 ml of PBS. These cells were kept at 4° C. until implantation.
Model Procedure: Animals were anesthetized and prepared for surgery. The animal's spleen was exposed and 100 μl (1 million cells) of the L3.6pl single cell suspension was injected directly in the spleen towards the splenic vein (intra splenic injection). Once the injection was complete, the splenic artery and splenic vein were ligated, the spleen was excised, and the animals' wounds were closed. Post-op care and analgesia was given for 4 consecutive days and animals were monitored for recovery.
Prior to the procedure listed above 40 animals were separated into 4 groups consisting of 10 animals each.
Animals in group 2 (Pre-Treatment), received IPI-926 every-other-day for 14 days, prior to the intra splenic injection procedure, continuing until the study end.
Animals in group 3 (Day-of-Treatment), received IPI-926 every-other-day beginning on the day of the intra splenic injection procedure, continuing until the study end.
Animals in group 4 (Post-Treatment), received IPI-926 every-other-day beginning 7 days after the intra splenic injection procedure, continuing until the study end.
Results Procedure: Animals were injected with 10 ml/kg of luciferin concentrated at […] via I.P. injection. This luciferin binds to the L3.6pl P-Lucky cells injected on day 0. Utilizing Calipers Xenogen© machine, this cell-luciferin association emits bioluminescence that can be read and quantified (total flux).
Results: The graphs in FIGS. 10A-10B represent the quantification, normalized on each day to the average of vehicle treated animals. This normalization was done using the formula: (1/(average flux of vehicle animals/average flux of group X (group being compared))).

CC1=C2C[C@H]3[C@@H](CC[C@@H]4C[C@H](NS(C)(=O)=O)CC[C@@]43C)[C@@H]2CC[C@@]2(C1)O[C@@H]1C[C@H](C)CN[C@H]1[C@H]2C [IPI-926]
tumor volume, IPI-926 alone ([1]; 40 mg/kg orally once a day): marked increase in tumor volume
tumor volume after cessation of docetaxel chemotherapy ([1]; docetaxel IV Q14D for 28 days followed by 40 mg/kg IPI-926): prolonged duration of the tumor inhibition
fraction of mice with rebound in tumor growth by 6 weeks (MRI) ([2]; 20 mg/kg/day, after maximal size reduction at 3 weeks): approximately half
tumor volume by MRI ([2]; after three weeks of daily administration): substantial tumor regression
average time to death after stopping treatment ([2]; drug withdrawn after six weeks of daily 20 mg/kg): ≤ 10 days
clinical symptoms of medulloblastoma ([2]; pilot study, daily IP 20 mg/kg/dose, 19 days of treatment): full resolution of clinical symptoms
mice still alive six weeks after starting twice-a-week therapy ([2]; six weeks daily then maintenance 20 mg/kg twice per week): 77%
survival ([2]; six weeks of daily IPI-926 20 mg/kg IP, vehicle 0%): 100%
reduction in flux (bioluminescence) below vehicle ([3]; IPI-926 every-other-day from 14 days prior to implant): 20-25 fold
take or growth of metastasis within the liver ([3]; day of implant treatment (Day 0)): no detectable effect
H&E staining of liver, tumor cells or metastasis ([3]; day of treated group): visible metastasis and tumors cells present
survival rate vs vehicle ([3]; day of treatment group): survival rates similar to vehicle treated animals
take or growth of metastasis within the liver ([3]; post implant treatment (Day 7)): no detectable effect
H&E staining of liver, tumor cells or metastasis ([3]; post treated group): visible metastasis and tumors cells present
survival rate vs vehicle ([3]; post treatment group): survival rates similar to vehicle treated animals
H&E staining of liver, tumor cells or metastasis ([3]; pre-treatment animal): no detectable tumor cells or metastasis
overall survival rate vs vehicle ([3]; treatment from 14 days prior to implant): doubles the overall survival rate
